System: primary hepatocytes of C57bl/6j mice
Assay: Glucose output in primary hepatocytes of C57bl/6j mice
Assay type: cell-based
Conditions: Hepatocyte, 6 hours, mouse primary hepatocytes, corrected by protein concentration, FIG. 3, read-out: gluconeogenesis inhibition (glucose output) relative to the negative control
Procedure: 2. To Investigate the Effect of Compounds on Glucose Output in Primary Hepatocytes of C57bl/6j Mice.
(1) Test purpose: To test whether the fatty acid compounds can inhibit hepatocyte glucose output on primary hepatocytes of C57bl/6j mice.
(2) Experimental principle: Small molecule compounds act on mouse primary hepatocytes, inhibit gluconeogenesis, and then affect the glucose output of cells into the medium. The effect of compounds on gluconeogenesis is evaluated by detecting the glucose concentration in the medium after the treatment of different compounds.
(3) Detection reagent: The glucose detection kit was purchased from Shanghai Mind Bioengineering Co., Ltd.
1) the primary hepatocytes of C57bl/6j mice were isolated and inoculated into a 24-well plate at a density of 300,000 per mL. After grew adhering to the wall for 6 hours, they were replaced on serumfree highsugar medium for 12 hours. Compounds 1 to 30 prepared by the present invention (in 1‰ DMSO, 50 μM) were separately added to treat for 6 hours (1‰ DMSO as a negative control). The medium was gently mixed, 50 μL of supernatant was taken from every well, and glucose concentration was measured by a glucose oxidase assay kit.
2) The medium was discarded. The cells was washed with PBS, spin dried, added 200 μL of 250 mM sodium hydroxide solution. […] The protein concentration was determined using coomassie blue staining. […]

## CCC(C)(CCCCCCC=CCCCCCCCC(C)(CC)C(=O)O)C(=O)O (stereo not shown) [Compound 20]
  inhibition at 50 µM: > 50%

Reference: patent US10414713B2, “Fatty acid compound, preparation method therefor and use therefor” (SHANGHAI INSTITUTE OF MATERIA MEDICA, CHINESE ACADEMY OF …, priority 2016, dated 2019)
